Laboratory results as given in US8367873B2, “Phenyl-substituted bicyclooctane-1,3-dione derivatives” (Bayer Cropscience AG, priority 2008, dated 2013).

Columns and labels:
Format in all cases: in vivo
[1] = system: monocotylidonous and dicotylidonous weed and crop plants; assay: Herbicidal post-emergence action (other test plants); settings: post-emergence method; for herbicidal effect against AVEFA (Avena fatua): 80 g/ha
Procedure, shortened: (§1)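 Percent herbicidal effect (0% like control, 100% plants dead) was rated by eye roughly three weeks post-treatment. Treatment was a post-emergence spray of wettable-powder formulations at different doses, 600 l/ha water with 0.2% wetter, onto one-leaf-stage weeds and crops grown in greenhouse pots.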

[2] = system: monocotylidonous and dicotylidonous weed and crop plants; assay: Herbicidal pre-emergence action (other test plants); settings: pre-emergence method, 80 g/ha, greenhouse, visual assessment vs untreated controls
Procedure, shortened: (§2)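 Test compounds, as wettable powder suspensions with 0.2% wetting agent at a water rate of 600 l/ha, were applied in different amounts to the covering soil over freshly sown seeds in sandy loam. Emergence damage was rated visually in percent against untreated plants after three weeks under greenhouse conditions.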

[3] = system: cereals; assay: Container trials with cereals in the greenhouse, use of safeners (Mefenpyr 1 day prior to herbicide application); settings: 28 days after application
Method: Seeds of monocotylidonous and dicotylidonous weed and crop plants are placed in sandy loam in wood fibre pots, covered with soil and cultivated in a greenhouse under good growth conditions. Two to three weeks after sowing, the test plants are treated at the one-leaf stage. The test compounds, formulated as wettable powders (WP), are then with a water application rate of 600 l/ha (converted), with 0.2% of wetting agent added, sprayed onto the green parts of the plants in different amounts. After the test plants have been kept in the greenhouse under optimum growth conditions for about three weeks, the effect of the preparations is assessed visually in comparison to untreated controls (herbicidal effect in percent: 100% effect=the plants have died, 0% effect=like control plants).
If it is to be additionally tested as to whether safeners can improve the plant compatibility of test substances in the case of crop plants, the following options are used for applying the safeners: • Seeds of the crop plants are, before sowing, dressed with safener substance (the amount of safener stated in percent, based on the weight of the seed) • Before the application of the test substances, the crop plants are sprayed with the safener at a certain application rate per hectare (usually one day before the application of the test substances) • The safener is applied together with the test substance as a tank mix (the amount of safener stated in g/ha or as a ratio, based on the herbicide).
Container Trials with Cereals in the Greenhouse

[4] = system: Lolium multiflorum; assay: Herbicidal pre-emergence action; settings: pre-emergence method, 80 g/ha, greenhouse, visual assessment vs untreated controls
Procedure, shortened: as §2

[5] = system: Echinocloa crus-galli; assay: Herbicidal pre-emergence action; settings: pre-emergence method, 80 g/ha, greenhouse, visual assessment vs untreated controls
Procedure, shortened: as §2

[6] = system: Setaria viridis; assay: Herbicidal pre-emergence action; settings: pre-emergence method, 80 g/ha, greenhouse, visual assessment vs untreated controls
Procedure, shortened: as §2

[7] = system: Alopecurus myosuroides; assay: Herbicidal pre-emergence action; settings: pre-emergence method, 80 g/ha, greenhouse, visual assessment vs untreated controls
Procedure, shortened: as §2

[8] = system: Lolium multiflorum; assay: Herbicidal post-emergence action; settings: post-emergence method; for herbicidal effect against LOLMU (Lolium multiflorum): 80 g/ha
Procedure, shortened: as §1

[9] = system: Setaria viridis; assay: Herbicidal post-emergence action; settings: post-emergence method; for herbicidal effect against SETVI (Setaria viridis): 80 g/ha
Procedure, shortened: as §1

[10] = system: Alopecurus myosuroides; assay: Herbicidal post-emergence action; settings: post-emergence method; for herbicidal effect against ALOMY (Alopecurus myosuroides): 80 g/ha
Procedure, shortened: as §1

[11] = system: Echinocloa crus-galli; assay: Herbicidal post-emergence action; settings: post-emergence method; for herbicidal effect against ECHCG (Echinochloa crus-galli): 80 g/ha
Procedure, shortened: as §1

Compound | herbicidal effect against AVEFA (Avena fatua) [1] [%] | herbicidal effect AVEFA [2] [%] | herbicidal effect LOLMU [4] [%] | herbicidal effect ECHCG [5] [%] | herbicidal effect SETVI [6] [%] | herbicidal effect ALOMY [7] [%] | herbicidal effect against LOLMU (Lolium multiflorum) [8] [%] | herbicidal effect against SETVI (Setaria viridis) [9] [%] | herbicidal effect against ALOMY (Alopecurus myosuroides) [10] [%] | herbicidal effect against ECHCG (Echinochloa crus-galli) [11] [%] | other results
CCOC(=O)OC1=C(c2c(CC)cc(C)cc2CC)C(=O)C2CC3(CC12)OC(C)CC(C)O3 (mixture of isomers) [I-c-10] | 100 | 80 | 100 | 100 | 90 | 100 | 100 | 90 | 90 | – | Summer barley observed (%) ([3]; 50 g of a.i./ha): 50%; Summer barley observed (%) ([3]; 100 g of a.i./ha): 95%; Summer wheat observed (%) ([3]; 12.5 g of a.i./ha): 15%; Summer wheat observed (%) ([3]; 25 g of a.i./ha): 50%; Summer wheat observed (%) ([3]; 50 g of a.i./ha): 95%
CCOC(=O)OC1=C(c2c(CC)cc(C)cc2CC)C(=O)C2CC3(CC12)OC(C)CC(C)O3 (stereo not drawn) [I-c-13] | 80 | 50 | 80 | 60 | 60 | 90 | 100 | 90 | 70 | 100 | –
CCc1cc(C)cc(C)c1C1=C(O)C2CC3(CC2C1=O)OCCCO3 (stereo not drawn) [I-a-58] | – | 70 | 100 | 100 | 100 | 70 | 100 | 100 | 100 | 100 | Summer barley observed (%) ([3]; 25 g of a.i./ha): 5%; Summer barley observed (%) ([3]; 50 g of a.i./ha): 10%; Summer barley observed (%) ([3]; 100 g of a.i./ha): 15%; Summer wheat observed (%) ([3]; 12.5 g of a.i./ha): 10%; Summer wheat observed (%) ([3]; 25 g of a.i./ha): 15%; Summer wheat observed (%) ([3]; 50 g of a.i./ha): 20%; Summer wheat observed (%) ([3]; 100 g of a.i./ha): 60%
CCc1cc(C)cc(C)c1C1=C(OC(=O)C(C)(C)C)C2CC3(COC(C)(C)O3)CC2C1=O (stereo not drawn) [I-b-70] | 0 | 80 | 100 | 100 | 90 | 100 | 100 | 40 | 70 | 100 | –
CCc1cc(C)cc(CC)c1C1=C(O)C2CC3(CC2C1=O)OC(C)CC(C)O3 (stereo not drawn) [I-a-15] | 90 | 40 | 100 | 70 | 70 | 80 | 100 | 90 | 90 | 100 | –
CCc1cc(C)cc(C)c1C1=C(OC(=O)C(C)(C)C)C2CC3(CC2C1=O)OCCCO3 (stereo not drawn) [I-b-74] | 80 | 60 | 100 | 100 | 70 | 60 | 100 | 80 | 80 | 100 | –
COc1cc(C)cc(C)c1C1=C(O)C2CC3(CC2C1=O)OCCCCO3 (stereo not drawn) [I-a-50] | 100 | 60 | 100 | 80 | 70 | 100 | 100 | 100 | 100 | 100 | –
CCOC(=O)OC1=C(c2c(C)cc(C)cc2C)C(=O)C2CC3(CC12)OCCCCO3 (racemic) [I-c-50] | 0 | 0 | 100 | 0 | 0 | 30 | 100 | 80 | 60 | 80 | –
CCc1cc(C)cc(CC)c1C1=C(OC(=O)COC)C2CC3(CC2C1=O)OCCCO3 (stereo not drawn) [I-b-28] | 100 | 50 | 100 | 100 | 70 | 90 | 100 | 100 | 100 | 100 | –
CCOC(=O)OC1=C(c2c(C)cc(C)cc2OC)C(=O)C2CC3(CC12)OCC=CCO3 (racemic) [I-c-65] | 100 | 60 | 100 | 80 | 90 | 100 | 100 | 100 | 100 | 100 | –
C=C1C[C@@H]2C(O)=C(c3c(CC)cc(C)cc3CC)C(=O)[C@@H]2C1 (stereo in doubt) [I-a-5, 2-(2,6-diethyl-4-methylphenyl)-3-hydroxy-5-methylidene-4,5,6,6a-tetrahydropentalen-1(3 aH)-one] | – | 60 | 90 | 80 | 70 | 60 | – | – | – | – | pest or weed control at 80 g/ha ([1]; 504 h, Avena fatua, read-out: herbicidal effect against AVEFA (Avena fatua)): 50%; pest or weed control at 80 g/ha ([8]; Lolium multiflorum, 504 h, read-out: herbicidal effect against LOLMU (Lolium multiflorum)): 90%; pest or weed control at 80 g/ha ([11]; Echinochloa crus-galli, 504 h, read-out: herbicidal effect against ECHCG (Echinochloa crus-galli)): 100%; pest or weed control at 80 g/ha ([9]; Setaria viridis, 504 h, read-out: herbicidal effect against SETVI (Setaria viridis)): 100%; pest or weed control at 80 g/ha ([10]; Alopecurus myosuroides, 504 h, read-out: herbicidal effect against ALOMY (Alopecurus myosuroides)): 60%
CCc1cc(C)cc(CC)c1C1=C(O)C2CC3(CC2C1=O)OCCS3 (mixture of isomers) [I-a-35] | 80 | 80 | 100 | 70 | 70 | 80 | 100 | 90 | 100 | 100 | –
C=C1CC2C(=O)C(c3c(C)cc(C)cc3C)=C(OC(=O)C(C)C)C2C1 (stereo not drawn) [I-b-38] | 0 | 70 | 60 | 80 | 80 | 80 | 70 | 90 | 40 | 90 | –
CCc1cc(C)cc(C)c1C1=C(OC(=O)C(C)C)C2CC3(CC2C1=O)OCCO3 (stereo not drawn) [I-b-79] | 100 | 70 | 100 | 100 | 80 | 70 | 100 | 100 | 90 | 100 | –
